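Five compound concentrations were applied to cells in 96-well plates for 48 hours; endpoints were derived by simple linear interpolation of the resulting dose-response curve. GI50 is the concentration that inhibits growth by half. At the TGI there is no net growth.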

Test systems include OVCAR-3 ovarian; RPMI-8226 leukemia; NCI-H522 lung; SW-620 colon; HCT-15 colon; UACC-62 melanoma; HOP-62 NSCLC; HCT-116 colon.
Assay in all cases: NCI tumour cell line growth inhibition, 48 h

As for `O=C(O)CN(c1ccc(F)cc1)S(=O)(=O)c1ccccc1`, the TGI in the assay with OVCAR-3 ovarian, with RPMI-8226 leukemia, in the assay with NCI-H522 lung, in the assay with SW-620 colon, with HCT-15 colon and in the assay with UACC-62 melanoma was over 100 µM throughout.
With `CCOC(=O)CN(c1ccccc1)c1nc(=[N+](C)C)ss1`, the TGI was 2 µM in the assay with OVCAR-3 ovarian; over 100 µM in the assay with HOP-62 NSCLC; 55.5 µM in the assay on RPMI-8226 leukemia; 0.492 µM in the assay on NCI-H522 lung; over 100 µM in the assay with SW-620 colon; 56.5 µM with HCT-15 colon. Also, the TGI is 59.3 µM with UACC-62 melanoma and over 100 µM with HCT-116 colon.
Turning to `O=C(O)c1c2c(cc3c(=O)cc(-c4ccccc4)oc13)CCCC2`, the TGI in the assay on OVCAR-3 ovarian, in the assay on HOP-62 NSCLC, in the assay on RPMI-8226 leukemia, in the assay on NCI-H522 lung, in the assay on SW-620 colon and in the assay on HCT-15 colon was over 100 µM throughout. The TGI with UACC-62 melanoma and in the assay with HCT-116 colon was over 100 µM throughout.
Regarding `Cc1ccc(C(=O)NCCN(C)C)c2nc3ccccc3cc12`, the TGI with OVCAR-3 ovarian is 6.79 µM; in the assay with HOP-62 NSCLC it was over 100 µM; in the assay on RPMI-8226 leukemia, over 100 µM; in the assay with SW-620 colon it was 3.52 µM; with HCT-15 colon, 6.5 µM; with UACC-62 melanoma, over 100 µM. Also, the TGI with HCT-116 colon came to 10.9 µM.
For `Cc1ccc(C2=Nc3ccccc3S(=O)C(c3ccc4c(c3)OCO4)C2)cc1` (centres undefined), the TGI in the assay on OVCAR-3 ovarian is 69.4 µM; in the assay with HOP-62 NSCLC, over 100 µM; with NCI-H522 lung, 44.7 µM; with SW-620 colon, 34.5 µM; with UACC-62 melanoma, 51.2 µM; with HCT-116 colon, 37.3 µM.
As for `CC(C)=NNC(=S)NC12CC3CC(CC(C3)C1)C2`, the TGI with OVCAR-3 ovarian, in the assay with HOP-62 NSCLC, with RPMI-8226 leukemia, in the assay on NCI-H522 lung, in the assay with SW-620 colon and in the assay with HCT-15 colon was over 100 µM throughout. Further, the TGI in the assay on UACC-62 melanoma and with HCT-116 colon was over 100 µM throughout.
`c1ccc2c(CNCCCCCCCCNCc3cccc4ccccc34)cccc2c1`: the TGI with OVCAR-3 ovarian is 22.5 µM; with HOP-62 NSCLC, 30.1 µM; in the assay with RPMI-8226 leukemia it was 3.87 µM; in the assay with NCI-H522 lung, 3.24 µM; in the assay on SW-620 colon it was 3.29 µM; in the assay on HCT-15 colon, 3.38 µM. Besides, the TGI stood at 3.24 µM in the assay on UACC-62 melanoma and 3.05 µM in the assay with HCT-116 colon.
With `COC(=O)C1[C@H](c2ccc3c(c2)OCO3)OC(=O)[C@]1(C(=O)OC)C(=O)c1ccc(OC)c(OC)c1` (some centres undefined), the TGI in the assay on OVCAR-3 ovarian, with HOP-62 NSCLC, in the assay on RPMI-8226 leukemia, with SW-620 colon, with HCT-15 colon and with UACC-62 melanoma was over 100 µM in each case.
For the compound `COc1cc(O)c2c(c1)C(=O)C1=C(C2=O)C(O)C[C@@](C)(O)C1` (some centres undefined), the TGI in the assay on OVCAR-3 ovarian amounted to 5.67 µM; with HOP-62 NSCLC it was 21.2 µM; with RPMI-8226 leukemia, 6.52 µM; in the assay with NCI-H522 lung it was 2.47 µM; in the assay with SW-620 colon it was 2.53 µM; in the assay on HCT-15 colon it was 3.61 µM. Further, the results for the TGI in the assay on UACC-62 melanoma and in the assay on HCT-116 colon were 3.1 µM and 2.22 µM, respectively.
For the compound `COC12OCCN(C)C1=CC(=O)C1(C)N=NCC12` (centres undefined), the TGI in the assay on OVCAR-3 ovarian, in the assay with RPMI-8226 leukemia, in the assay on NCI-H522 lung, in the assay on SW-620 colon, in the assay with HCT-15 colon and in the assay with UACC-62 melanoma was over 100 µM throughout. Besides, the TGI with HCT-116 colon is over 100 µM.
For `CCCCCCCCCCOC(=O)NCCC`, the TGI was over 100 µM in the assay on OVCAR-3 ovarian; 43.3 µM in the assay with RPMI-8226 leukemia; 50.4 µM with NCI-H522 lung; over 100 µM in the assay with SW-620 colon; 48.4 µM in the assay on HCT-15 colon; over 100 µM in the assay on UACC-62 melanoma.
On to `O=C(CSSCC(=O)Nc1ccc(Br)cc1)Nc1ccc(Br)cc1`, for which the TGI came out at 32.1 µM with OVCAR-3 ovarian; 25.9 µM in the assay with HOP-62 NSCLC; 64.3 µM in the assay on RPMI-8226 leukemia; 24.8 µM in the assay on NCI-H522 lung; 29.4 µM in the assay with SW-620 colon; 46.6 µM with HCT-15 colon. Moreover, the TGI in the assay on UACC-62 melanoma is 29.3 µM; in the assay on HCT-116 colon, 28.1 µM.
Consider `CC[PH+](CC)CC.CC[PH+](CC)CC.[Au]`, for which the GI50 with OVCAR-3 ovarian is 18.2 µM; in the assay with HOP-62 NSCLC it was 22 µM; in the assay with RPMI-8226 leukemia it was 3.87 µM; in the assay with NCI-H522 lung, 0.308 µM; with SW-620 colon, 5.13 µM; in the assay on HCT-15 colon, 6.24 µM. Further, the GI50 with UACC-62 melanoma is 3.9 µM; with HCT-116 colon, 16 µM. Also, the TGI in the assay on OVCAR-3 ovarian was determined as 33.2 µM; in the assay on HOP-62 NSCLC, 36.6 µM; with RPMI-8226 leukemia, 30.2 µM; in the assay with NCI-H522 lung, 1.25 µM; in the assay with SW-620 colon, 15.6 µM; in the assay with HCT-15 colon it was 25.7 µM. Besides, the results for the TGI with UACC-62 melanoma and in the assay on HCT-116 colon were 19.1 µM and 32.9 µM, respectively.
For `N#CCc1nnc(N)o1`, the TGI in the assay with OVCAR-3 ovarian, in the assay on RPMI-8226 leukemia, in the assay on NCI-H522 lung, in the assay on SW-620 colon, in the assay on HCT-15 colon and with UACC-62 melanoma was over 100 µM in each case. In the assay on HCT-116 colon, this compound had a TGI of over 100 µM.

The values are drawn from PubChem BioAssay (NCI).
